Test results reported in patent US20200281209A1, “STABILIZED EMULSIONS” (Suncor Energy Inc., priority 2016, published 2020).

Test: Emulsification test after simulated long term storage at 50° C. (Testing Example 6)
Assay type: physicochemical
Settings: for re-emulsification compared with composition with no biocide: after storage at 50° C. for 32 and 70 days
Method: Where required, solutions were preheated to aid in dissolution of surfactants. Once the various components had been dissolved into solution, final oil-in-water emulsion composition were blended using high shear mixing (Polytron, Brinkmann Instruments). For solutions containing monomeric surfactants, solutions were subjected to high shear mixing for 5 minutes, while solutions containing polymeric surfactants were subjected to high shear mixing for 15 minutes. Once blending was completed, samples were assessed for quality of emulsification and then placed at 50° C. for up to 70 days, with additional assessments occurring at different time points throughout the storage period. Quality of emulsification was assessed using the method described below. Samples were placed at 50° C. to accelerate storage stability testing, as 4 weeks at 50° C. is representative of 2 years at ambient temperature (CIPAC MT 46.3). The following method was used to evaluate the tested emulsions. The method was performed using a 100 mL graduated cylinder and a pipette (capable of measuring at least 1 mL). The oil-in-water emulsion compositions evaluated in this example were tested as follows: • 1. If ready-to-use spray oil solutions were under storage conditions (e.g., storage for two weeks at 54° C.), the solution was shaken to allow the contents to re-emulsify. • 2. A graduated cylinder was filled with 100 mL of an oil-in-water emulsion composition, and the amount was adjusted as necessary using a pipette. The test solution was allowed to sit for 15 minutes to permit the emulsion to break and to let the majority of the foam generated in step 1 (FIG. 1A) to disappear before moving to step 3. […] The foam should be allowed to settle before inverting cylinders. Even with inversion of cylinders (vs. shaking), some foaming can occur (FIG. 1(B)). • 3. A stopper was placed on the graduated cylinder and the graduated cylinder was inverted 10 times. It was important to invert and not shake the cylinder to prevent excess foaming. • 4. […] Rating were based on the following scale (1-10). […] Specifically, FIG. 2 is an example of an oil-in-water emulsion composition with a rating of 10 (best) at five minutes after inversion. The solution is a homogeneous, milky emulsion (left) and lacks an oil layer or creaming on the surface (right). […] The solution is a homogeneous, milky emulsion (left), but with creaming and some oil coalescence on surface (right). Finally, FIG. 4 is an example of an oil-in-water emulsion composition with a rating of 1 (worst) at five minutes after inversion. The solution has a cloudy appearance, lacks a homogeneous, milky emulsion (left), and has a layer of large, coalesced oil deposits at the surface of the solution (right). The figures were used in the examples described herein as a reference only.

[1] = Base oil Group III, Alcohol ethoxylate/alkyl glyceride, 70 days of storage (50° C.), 10 = best, 1 = worst

O=C(O)c1ccccc1 [Benzoic acid, benzoic acid]
Emulsion Rating (1-10) (Base oil Group I, Alcohol ethoxylate/alkyl glyceride, 70 days of storage (50° C.)): 6 | Emulsion Rating (1-10) (Base oil Group II, Alcohol ethoxylate/alkyl glyceride, 70 days of storage (50° C.)): 7 | Emulsion Rating (1-10) [1]: 7 | Emulsion Rating (1-10) (Base oil Group III, Alkyl polysaccharide, 27 days of storage (50° C.)): 8 | Emulsion Rating (1-10) (Base oil Group III, Block copolymer, 27 days of storage (50° C.)): 8 | Emulsion Rating (1-10) (Base oil Group III, Polyoxyethylene amine quarternary/alkyl glyceride, 27 days of storage (50° C.)): 4 | Emulsion Rating (1-10) (Base oil Group III, Random polymeric/Block copolymer, 64 days of storage (50° C.)): 5 | Emulsion Rating (1-10) (Base oil Group IV, Alcohol ethoxylate/alkyl glyceride, 70 days of storage (50° C.)): 6 | re-emulsification compared with composition with no biocide: improved re-emulsification | effect on re-emulsification, single surfactant (alcohol ethoxylate, amine alkybenzenesulfonate (anionic), polyoxyethylene amine quarternary (cationic) or polyethylene glycol): no impact | effect on re-emulsification, single surfactant (alkyl glyceride, random polymeric, sorbitan monooleate, sorbitan fatty acid ester, or dodecyl phenol): negatively affected | effect on re-emulsification, single surfactant (block copolymer or alkyl polysaccharide surfactant): improved re-emulsification | effect on re-emulsification, surfactant pairs (dodecyl phenol + alcohol ethoxylate, alcohol ethoxylate + amine alkylbenzenesulfonate (anionic), sorbitan monooleate + polyoxyethylene (20) sorbitan monooleate): no impact | re-emulsification compared with compositions without benzoic acid (group I, group II, group III, and group IV (poly-alpha-olefins) base oils): improved re-emulsification | effect on re-emulsification, surfactant pairs (polyethylene glycol monostearate + alkyl glyceride, alkyl polysaccharide + alkyl glyceride): negatively affected | effect on re-emulsification, surfactant pairs (random polymeric + block copolymer (64 days), polyoxyethylene amine quarternary + alkyl glyceride (27 days), alcohol ethoxylate + alkyl glyceride (70 days), 50° C.): improved re-emulsification

COC(=O)c1ccc(O)cc1 [Methyl paraben, methyl paraben]
Emulsion Rating (1-10) [1]: 5 | re-emulsification compared with composition with no biocide: improved re-emulsification

CCCOC(=O)c1ccc(O)cc1 [Propyl paraben, propyl paraben]
Emulsion Rating (1-10) [1]: 5 | re-emulsification compared with composition with no biocide: improved re-emulsification

C/C=C/C=C/C(=O)O [sorbic acid, reference compound]
re-emulsification compared with composition with no biocide: comparable or worse emulsification quality

O=C([O-])c1ccccc1.[Na+] [Sodium benzoate, sodium benzoate]
Emulsion Rating (1-10) [1]: 6 | re-emulsification compared with composition with no biocide: improved re-emulsification
